The text below walks through data of patent US7001770B1, “Calpain inhibitors and their applications” (priority 1998, dated 2006).

Square brackets hold non-standard residues; d marks the D form. Peptide text beside a SMILES is read from it. Nle = CCCC[C@H](N)C(=O)O

The subject of test [1] is proteasome. The conditions noted are these: below 50 μM primarily an inhibitor of calpain; cited from earlier work.
The subject of test [2] is p53 levels in cell lines with endogenous wildtype and mutated p53 status. Nature of the test: Western blot of p53 levels. It is filed as cell-based. The note with it: in response to calpain inhibitor 1 (FIG. 5). For orientation: Immunoblotting shows a protein as a band on a membrane.
Test [3] has as its system HLF cells. Put plainly: Infectivity: copies of rAd-p53 DNA by PCR. It is filed as cell-based. The method, then: The effects of the use of calpain inhibitors, particularly CI-1, were investigated in their ability to increase the infectivity of the HLF tumor cell line to rAd-p53. HLF cell lines were prepared in substantial accordance with the teaching of example 6 herein. The cells were exposed to two concentrations of rAd-p53 in the presence and absence of 10 μM CI-1. The total number of copies of rAd-p53 DNA were determined by PCR as described in Example 6. The results of these experiments are presented in Table 4 below and in graphical form in FIG. 7 of the attached drawings.
A similar experiment was conducted to determine the effect of pre-treatment of the cells with the calpain inhibitor. The cell lines were prepared as indicated above. In this experiment, one group of cells was pretreated with a 10 μM concentration of CI-1 for a period of 6 hours prior to exposure to the Ad-p53. The control sample was not pretreated. The results of these experiments are presented in Table 5 below and in graphical form in FIG. 7 of the attached drawings.
The following materials were obtained from Perkin Elmer Corporation under Part No. N808-0028: Gene Amp 10× Taqman Buffer A, 25 mM MgCl2, 5 μM Oligonucleotide Primer “A”, 5 μM Oligonucleotide Primer “B”, 5 units/mL AmpliTaq® Gold DNA Polymerase, 10 μM Taqman Probe. Deoxynucleotide Triphosphates, dATP, dCTP, and dGTP are 10 mM. dUTP is 20 mM. […]

Test [4] deals with JC (mouse mammary carcinoma, p53 mutant) cells. Nature of the test: Rodent cancer model, flank tumors. It is filed as in vivo, mice. The conditions noted are these: calpain inhibitor alone, 60 mg/kg intraperitoneal. The method, then:
The in vitro results presented above were confirmed in a rodent cancer model. Briefly, healthy immune competent mice were injected with JC (mouse mammary carcinoma, p53 mutant) cells and tumors were permitted to form. This is a particularly rigorous model as JC cells are particularly difficult to infect and the mouse is an immunocompetent mouse capable of producing an immune response to the human adenovirus and/or the human p53 transgene. After 2 weeks, flank tumors were present in all animals. Calpain inhibitor was administered via intraperitoneal injection to a concentration of approximately 60 mg/kg approximately 24 hours prior to administration of the recombinant rAd-p53 virus. Appropriate control viruses and solutions were employed. The mice were injected with 1×10^10 particles of rAd-p53 per injection intratumorally in combination with intraperitoneally injected CI-1 at a concentration of 60 mg/kg for a period of 5 days, 2 days off and then for 5 more days. Tumor growth/regression was evaluated at Day 4, Day 8 and Day 11 post-treatment (FIGS. 12 A,B and C respectively). In all instances the rate of decrease in tumor growth was at least 40% reduction in fold increase in tumor volume in mice treated with calpain inhibitor 1 in addition to FTCB, in comparison with the mice treated with the FTCB vector alone.

Consider `CCCC[C@@H](C=O)NC(=O)[C@H](CC(C)C)NC(=O)[C@H](CC(C)C)NC(C)=O` [CI-1, N-acetyl-leu-leu-norleucinal] (Ac-Leu-Leu-[Nle]-aldehyde), for which the “concentration above which CI-1 inhibits proteasome function” value in test [1] is recorded as “above 50 μM”. The “increase in p53 levels” value in test [2] is reported as 2–5 ×. Moreover, the “increase in intracellular viral DNA” value in test [3] (10 μM CI-1, no pre-treatment, viral concentration 1×10^7 and 1×10^8 particles) was found to be 50 fold. Moreover, the “infectivity of the cells to the virus relative to untreated cells” value in test [3] (6 hour pretreatment with 10 μM CI-1, ACN53 3×10^7) is “approximately 130 times”. The antitumor effects result in test [4] is reported as “significant antitumor effects”.
